According to US12157746B2, “Tetrahydro-1H-pyrazino[2,1-a]isoindolylquinoline compounds for the treatment of autoimmune disease” (F. HOFFMANN-LA ROCHE AG, priority 2018, dated 2024):
In brackets after ≈: the same amount, converted by molar mass.

Experiments:
hERG K+ channel = target: T1, hERG K+ channel (Homo sapiens, UniProt Q12809); test: hERG channel inhibition assay; type: cell-based; settings: patch-clamp (voltage-clamp, whole-cell); for IC50: CHO cells expressing hERG; for IC20: human, CHO cells stably expressing hERG
T1 construct: expressed in transfected cells; host or cells: CHO (Chinese hamster ovary) cells, CHOhERG
T1 sequence (Q12809 whole entry): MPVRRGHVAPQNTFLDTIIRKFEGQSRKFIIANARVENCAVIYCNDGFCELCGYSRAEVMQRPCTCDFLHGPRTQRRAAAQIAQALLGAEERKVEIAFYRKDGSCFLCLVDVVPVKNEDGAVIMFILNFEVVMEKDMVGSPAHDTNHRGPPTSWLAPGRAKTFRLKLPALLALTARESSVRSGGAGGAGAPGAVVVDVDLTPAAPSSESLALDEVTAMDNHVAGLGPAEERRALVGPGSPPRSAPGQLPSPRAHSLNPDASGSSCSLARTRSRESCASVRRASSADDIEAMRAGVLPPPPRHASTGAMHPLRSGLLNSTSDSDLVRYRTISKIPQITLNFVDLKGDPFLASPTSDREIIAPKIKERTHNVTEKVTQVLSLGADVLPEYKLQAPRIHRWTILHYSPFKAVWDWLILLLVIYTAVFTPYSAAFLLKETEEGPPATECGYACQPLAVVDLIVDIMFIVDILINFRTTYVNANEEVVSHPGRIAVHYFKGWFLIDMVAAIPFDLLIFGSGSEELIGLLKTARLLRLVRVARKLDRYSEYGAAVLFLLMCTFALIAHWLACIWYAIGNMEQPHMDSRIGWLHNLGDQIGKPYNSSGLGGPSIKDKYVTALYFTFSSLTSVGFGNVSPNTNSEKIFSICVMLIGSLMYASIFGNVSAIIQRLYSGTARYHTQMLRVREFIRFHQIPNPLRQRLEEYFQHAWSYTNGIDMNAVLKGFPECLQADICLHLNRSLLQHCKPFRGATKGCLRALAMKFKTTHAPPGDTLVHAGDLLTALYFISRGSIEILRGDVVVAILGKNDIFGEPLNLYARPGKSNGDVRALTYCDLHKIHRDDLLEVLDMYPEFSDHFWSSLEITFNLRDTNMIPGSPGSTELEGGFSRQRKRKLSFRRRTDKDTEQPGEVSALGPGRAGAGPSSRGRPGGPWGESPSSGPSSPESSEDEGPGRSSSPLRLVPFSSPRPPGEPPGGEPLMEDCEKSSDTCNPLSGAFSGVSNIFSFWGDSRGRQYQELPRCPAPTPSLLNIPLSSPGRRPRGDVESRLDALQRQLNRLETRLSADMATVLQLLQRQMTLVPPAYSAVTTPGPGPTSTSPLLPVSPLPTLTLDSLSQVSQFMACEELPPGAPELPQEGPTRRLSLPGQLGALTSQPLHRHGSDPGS
Protocol: hERG Channel Inhibition Assay
The hERG K^+ channels were cloned in humans and stably expressed in a CHO (Chinese hamster ovary) cell line. CHOhERG cells were used for patch-clamp (voltage-clamp, whole-cell) experiments. Cells were stimulated by a voltage pattern to activate hERG channels and conduct IKhERG currents (rapid delayed outward rectifier potassium current of the hERG channel). After the cells were stabilized for a few minutes, the amplitude and kinetics of IKhERG were recorded at a stimulation frequency of 0.1 Hz (6 bpm). Thereafter, the test compound was added to the preparation at increasing concentrations. For each concentration, an attempt was made to reach a steady-state effect, usually, this was achieved within 3-10 min at which time the next highest concentration was applied. The amplitude and kinetics of IKhERG are recorded in each concentration of the drug which were compared to the control values (taken as 100%). (references: Redfem W S, Carlsson L, Davis A S, Lynch W G, MacKenzie I, Palethorpe S, Siegl P K, Strang I, Sullivan A T, Wallis R, Camm A J, Hammond T G. 2003; Relationships between preclinical cardiac electrophysiology, clinical QT interval prolongation and torsade de pointes for a broad range of drugs: evidence for a provisional safety margin in drug development. Cardiovasc. Res. 58:32-45, Sanguinetti M C, Tristani-Firouzi M. 2006; hERG potassium channels and cardiac arrhythmia. Nature 440:463-469, Webster R, Leishman D, Walker D. 2002; Towards a drug concentration effect relationship for QT prolongation and torsades de pointes. Curr. Opin. Drug Discov. Devel. 5:116-26).

[1] = tested on: Balb/c 3T3 mouse fibroblasts; test: 3T3 in vitro phototoxicity assay; type: cell-based; settings: Neutral Red uptake
Description: 3T3 In Vitro Phototoxicity Assay
Phototoxicity is defined as a toxic response that is elicited after the first exposure of the skin to certain chemicals and subsequent exposure to light, or that is induced similarly by skin irradiation after systemic administration of a chemical substance. The assay used in this study is designed to detect the phototoxic potential of a chemical by using a simple in vitro cytotoxicity assay with Balb/c 3T3 mouse fibroblasts. The principle of this test is a comparison of the cytotoxicity of a chemical when tested with and without exposure to a non-toxic dose of UVA-light. Cytotoxicity is expressed as a dose dependent reduction of the growth rate of cells as determined by uptake of the vital dye Neutral Red one day after treatment.
A small amount of substance was weighed and formulated freshly in DMSO just before the start of the exposure of the cells. This stock solution or appropriate dilutions with DMSO were added to the cell suspensions to obtain the required final concentrations. All solutions were generally prepared in Eppendorf caps and discarded after use.
For this study the Neutral Red uptake (NRU) assay of Borenfreund and Puemer (Borenfreund, E, Puemer J A. Toxicity determined in vitro by morphological alterations and Neutral Red absorption. Toxicology Lett. 1985; 24:119-124) modified according to INVITTOX protocol No 78 (ERGATT/FRAME data bank of in vitro techniques in toxicology. INVITTOX PROTOCOL No 78. 3T3 NRU Phototoxicity Assay. March 1994) has been adapted to examine a possible phototoxic potential of the test item. This assay is based on the active uptake of the Neutral Red dye into the lysosomes of cultured murine fibroblasts. Because lysosomal membranes are known to be a site of action of many phototoxic compounds, this assay can provide a measure of potential for phototoxic injury.
A murine fibroblasts clone A 31 (ATCC no. CCL 163—passage No. 108) were cultured in 175 cm2 tissue culture grade flasks, containing sDMEM (Dulbecco's Minimal Essential Medium, supplemented with 10% fetal calf serum, 2 mM L-glutamine, 100 units/ml Penicillin and 100 μg/ml streptomycin) at 37° C. in a humidified atmosphere of 6% C02. Before cells approach confluence they were removed from flasks by trypsinisation. Prior to use in an assay, the cells were transferred to 96-well microtiter plates at a concentration of 1×10^4 cells/well in 100 μl volumes of sDMEM and allowed to attach for 24 h.
For incubation with murine fibroblasts, the test item was diluted in PBS/3% DMSO (detailed concentrations see in results).
Culture medium (Dulbecco's Modified Eagle Medium (DMEM), GlutaMAX (Gibco Ref 21885-025), 10% Fetal Bovine Serum (FBS) (Gibco Ref 10270-106), 100 IU/ml Penicillin and 100 μg/ml Streptomycin (Gibco Ref 15140-122)) was removed from the wells and murine fibroblasts were washed with PBS. Afterwards 100 μL of PBS/3% DMSO containing the test item was added and target cells were incubated for 1 h at 37° C. with 6% CO2.
For each test item the microtiter plates were prepared according to Table 4. “UVA plates” were exposed to approx. 5 J/cm2 UVA light, the “Dark plates” were kept in the dark and served as cytotoxicity control. Plates with chlorpromazine hydrochloride served as positive control. UV flux was measured with a UV-meter (Dr. Gröbel RM21).
Following UV irradiation, the test item was removed from the wells (one washing step with PBS) and replaced with sDMEM. Target cells were then incubated overnight at 37° C. in 6% CO2.
Each plate contained wells with cells and solvent but without test item which were either not incubated with Neutral Red solution (0% standard—S1) or were stained with Neutral Red (100% standard—S2) for calculation of the standard cell viability curve. Wells labeled with U01-U08 contained the different test item concentrations.
After the incubation the wells to be assayed were filled with 100 μL of the sDMEM containing Neutral Red. […]

SMILES	IC50 (hERG K+ channel) [µM]	IC20 (hERG K+ channel) [µM]	Phototoxicity factor ([1]; Factor=IC50(−UV)/IC50(+UV), cut-off factor >5)	IC50 ([1]; Mus musculus, BALB/c3T3, light or radiation study, with approx. 5 J/cm2 UVA light) [µg/mL]
C[C@H]1CN(c2ccc(C#N)c3ncccc23)C[C@H]2c3ccc(N4CCNCC4)cc3CN12 [Example 2, 5-[(4S,10bR)-4-methyl-8-piperazin-1-yl-3,4,6,10b-tetrahydro-1H-pyrazino[2,1-a]isoindol-2-yl]quinoline-8-carbonitrile]	> 20	> 10	–	–
C[C@@H]1CN(c2ccc(C#N)c3ncccc23)C[C@@H]2c3ccc(NCC4COCCN4)cc3CN12 (stereo partly drawn) [Example 57, 5-[(4R,10bS)-4-methyl-8-(morpholin-3-ylmethylamino)-3,4,6,10b-tetrahydro-1H-pyrazino[2,1-a]isoindol-2-yl]quinoline-8-carbonitrile]	> 20	> 10	–	–
C[C@@H]1CN(c2ccc(C#N)c3ncccc23)C[C@@H]2c3ccc(NC[C@H]4CNCCO4)cc3CN12 [Example 59, 5-[(4R,10bS)-4-methyl-8-[[(2R)-morpholin-2-yl]methylamino]-3,4,6,10b-tetrahydro-1H-pyrazino[2,1-a]isoindol-2-yl]quinoline-8-carbonitrile]	> 20	> 10	–	–
CO[C@@H]1CNC[C@@H]1Nc1ccc2c(c1)CN1[C@H](C)CN(c3ccc(C#N)c4ncccc34)C[C@H]21 [Example 60, 5-[(4R,10bS)-8-[[(3S,4R)-4-methoxypyrrolidin-3-yl]amino]-4-methyl-3,4,6,10b-tetrahydro-1H-pyrazino[2,1-a]isoindol-2-yl]quinoline-8-carbonitrile]	> 20	> 10	–	–
CO[C@H]1CNC[C@@H]1N(C)c1ccc2c(c1)CN1[C@H](C)CN(c3ccc(C#N)c4ncccc34)C[C@H]21 [Example 64, 5-[(4R,10bS)-8-[[(3S,4S)-4-methoxypyrrolidin-3-yl]-methyl-amino]-4-methyl-3,4,6,10b-tetrahydro-1H-pyrazino[2,1-a]isoindol-2-yl]quinoline-8-carbonitrile]	> 20	8.5	–	–
C[C@@H]1CN(c2ccc(C#N)c3ncccc23)C[C@@H]2c3ccc(NCCN4CC[C@H](O)C4)cc3CN12 [Example 68, 5-[(4R,10bS)-8-[2-[(3S)-3-hydroxypyrrolidin-1-yl]ethylamino]-4-methyl-3,4,6,10b-tetrahydro-1H-pyrazino[2,1-a]isoindol-2-yl]quinoline-8-carbonitrile]	> 20	5.6	–	–
C[C@@H]1CN(c2ccc(C#N)c3ncccc23)C[C@@H]2c3ccc(N4C[C@H]5CNCCN5C4=O)cc3CN12 [Example 72, 5-[(4R,10bS)-8-[(8aR)-3-oxo-1,5,6,7,8,8a-hexahydroimidazo[1,5-a]pyrazin-2-yl]-4-methyl-3,4,6,10b-tetrahydro-1H-pyrazino[2,1-a]isoindol-2-yl]quinoline-8-carbonitrile]	> 20	> 10	–	–
[2H]c1ccc2c(N3C[C@@H](C)N4Cc5cc(N6CC7(CNCCO7)C6)ccc5[C@H]4C3)ccc(C#N)c2n1 [Example 90, 5-[(4R,10bS)-4-methyl-8-(5-oxa-2,8-diazaspiro[3.5]nonan-2-yl)-3,4,6,10b-tetrahydro-1H-pyrazino[2,1-a]isoindol-2-yl]-2-deuterio-quinoline-8-carbonitrile]	–	–	>2	50.6 (≈ 108 µM)
